Source: article PMC10301845, “Characterization of a Novel M4 PAM PET Radioligand [11C]PF06885190 in Nonhuman Primates (NHP)” (Molecules, 2023)
Read-outs that look alike come from different tables or passages of the source.

Key:
[1] = Protein binding in plasma (ultrafiltration); assay type: in vitro ADME, monkey; conditions: male, cynomolgus, monkey, plasma, read-out: free fraction in plasma
Procedure: (§1) The free fraction (fp) in blood plasma was measured using an ultrafiltration method with the blood sample collected before the injection of [^11C]PF06885190. Plasma (0.4 mL) was mixed with [^11C]PF06885190 formulation (0.04 mL, ~1 MBq) and incubated at room temperature (RT) for 10 min. To estimate the non-specific binding percent, the same process was performed on phosphate buffered saline (PBS) (0.4 mL) as a control solution. After the incubation, 0.2 mL of the plasma and PBS incubated mixtures were pipetted into ultrafiltration tubes (Centrifree YM-30, molecular weight cutoff, 30,000 Da; Millipore: Billerica, MA, USA) and centrifuged at 3800 rpm for 15 min. Equal aliquots (0.02 mL) of the ultrafiltrate (Cfree) and the plasma (Ctotal) were counted for their radioactivity with a NaI well-counter. Each determination was performed in triplicate. The free fraction was then calculated as fp = Cfree/Ctotal, and the results were corrected for the membrane binding measured with the control samples.

[2] = tested on: monkey plasma proteins; assay: Protein binding in plasma (ultrafiltration); assay type: in vitro ADME
Procedure: as §1

[3] = Stability of the radioligand in the formulation (analytical HPLC); assay type: physicochemical; conditions: sterile PBS formulation; up to 60 min / 1 h after end of synthesis
Procedure: The radiochemical purity and stability of [^11C]PF06885190 was determined by an analytical HPLC system coupled with an analytical XBridge column (C18 5 µm, 4.6 × 150 mm particle size), a Merck Hitachi L-7100 Pump, a L-7400 UV detector and a GM-tube for radioactivity detection (VWR International). A mixture of acetonitrile (30%) and HCO2NH4 (0.1 M aq. solution) (70%) with a flow rate of 2 mL/min was used as the HPLC isocratic mobile phase. The HPLC elution profile was monitored with an UV absorbance detector (ƛ = 254 nm) coupled to a radioactive detector (BETA-flow, Beckman, Fullerton, CA). [^11C]PF-06885190 was eluted with a retention time of (tR) 4.0–4.5 min (Figure S3, Supplementary Material) and the run time of the HPLC program was 8 min. The identity of the radiolabeled compounds was confirmed by HPLC with the co-injection of the corresponding authentic reference standard. The MA was calculated by analytical HPLC following the method described previously reported.

[4] = Radiometabolite analysis in NHP blood plasma (gradient HPLC); assay type: in vivo, cynomolgus monkey
Procedure: Radiometabolites in NHP blood plasma were analyzed following a previously published method. A reverse-phase HPLC system with an UV absorbance detector (ƛ = 254 nm) coupled to a radio detector was used to determine the percentages of radioactivity corresponding to [^11C]PF06885190 and its radioactive metabolites during whole PET measurement. Arterial blood samples (0.7–1.5 mL) were obtained using an automated blood sampling system from the monkey at different time points such as 2, 5, 15, 30 and 60 min after injection of [^11C]PF06885190 following a previously described method. Plasma was separated from collected blood by centrifuging at 4000 rpm for 2 min. The obtained plasma was diluted with 1.4 times volume of acetonitrile and then centrifuged at 6000 rpm for 4 min. The extract was separated from the pellet and was diluted with water (3 mL) before being injected into the HPLC system. The HPLC system was coupled to an Agilent binary pump (Agilent 1200 series) which was connected to a manual injection valve (7725i, Rheodyne), a 5.0 mL loop, and a radiation detector (Oyokoken, S-2493Z) housed in a shield of 50 mm thick lead. A semi-preparative reverse-phase, an ACE 5µm C18 HL column ([…]), was used to achieve the chromatographic separation (Figure S4A,B, Supplementary Material) of the radiometabolites from the unchanged parent compound [^11C]PF06885190 by gradient elution. Acetonitrile (A) and 0.1 M amoniumformate (B) were used as the mobile phase at flow rate 5.0 mL/min, according to the following program: 0−4.0 min, (A/B) 40:60 → 90:10 v/v; 4.0−6.0 min, (A/B) 90:10 v/v. a radioactive peak corresponding to [^11C]PF06885190 eluted from the HPLC column was integrated and the area was expressed as a percentage of the sum of the areas of all detected radioactive compounds. To calculate the recovery of radioactivity from the system, the eluate from the HPLC column was measured in a capintec dose calibrator and divided by the amount of total radioactivity injected into the HPLC.

[5] = after pretreatment with donepezil

For `Cc1nc(N[11CH3])c2c(c1C)CN(C(=O)C[C@H]1C[C@@H]1c1ccc(F)nc1)C2` [[^11C]PF06885190], which fraction unbound at 10 min [1, 5] is on record?
Its fraction unbound at 10 min is 0.121.

And the fraction unbound at 10 min ([1]; baseline)?
Its fraction unbound at 10 min is 0.248.

What about the “Binding to monkey plasma proteins” value [2, 5] of the same molecule?
The value was 87.9 ± 0.3%.

And the “Binding to monkey plasma proteins” value ([2]; baseline)?
Its value is 75.2 ± 4.2%.

What about the “stability in formulation, radiochemical purity” value [3] of the same molecule?
Its value is “exceeding 99%”.

And the “parent compound in plasma” value ([4]; 5 min after injection)?
The value was “approximately 95%”.

What about the “parent compound in plasma” value ([4]; 60 min, after pretreatment with CVL-231) of the same molecule?
Its value is “about 20%”.

What about the “parent compound in plasma” value ([4]; 60 min, after pretreatment with donepezil) of the same molecule?
Its value is “about 30%”.

And the “parent compound in plasma” value ([4]; 60 min, baseline condition)?
The value was “about 20%”.
